# Source: ChEMBL document CHEMBL3769324, “Acetophenone derivatives: novel and potent small molecule inhibitors of monoamine oxidase B” (Medchemcomm, 2015)
# Key:
# [1] = target: T1, Amine oxidase [flavin-containing] A (Homo sapiens, UniProt P21397); test: Inhibition of human MAOA using p-tyramine as substrate after 15 mins by Amplex Red MAO assay
# T1 sequence (P21397 whole entry): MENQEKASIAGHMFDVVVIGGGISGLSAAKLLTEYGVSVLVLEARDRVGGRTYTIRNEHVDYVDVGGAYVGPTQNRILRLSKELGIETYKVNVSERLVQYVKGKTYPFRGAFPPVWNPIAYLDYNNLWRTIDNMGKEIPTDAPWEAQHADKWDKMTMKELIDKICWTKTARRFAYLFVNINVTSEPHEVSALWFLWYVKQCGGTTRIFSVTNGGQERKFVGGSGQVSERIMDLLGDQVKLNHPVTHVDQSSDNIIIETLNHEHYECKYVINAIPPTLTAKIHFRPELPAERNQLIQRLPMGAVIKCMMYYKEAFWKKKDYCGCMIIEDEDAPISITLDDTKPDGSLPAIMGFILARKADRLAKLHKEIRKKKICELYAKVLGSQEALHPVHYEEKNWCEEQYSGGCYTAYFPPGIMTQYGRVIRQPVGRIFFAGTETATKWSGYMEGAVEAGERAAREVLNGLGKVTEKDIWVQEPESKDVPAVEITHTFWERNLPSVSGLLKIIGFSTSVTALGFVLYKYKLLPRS
# [2] = target: T2, Amine oxidase [flavin-containing] B (Homo sapiens, UniProt P27338); test: Inhibition of human MAOB using p-tyramine as substrate after 15 mins by Amplex Red MAO assay
# T2 sequence (P27338 whole entry): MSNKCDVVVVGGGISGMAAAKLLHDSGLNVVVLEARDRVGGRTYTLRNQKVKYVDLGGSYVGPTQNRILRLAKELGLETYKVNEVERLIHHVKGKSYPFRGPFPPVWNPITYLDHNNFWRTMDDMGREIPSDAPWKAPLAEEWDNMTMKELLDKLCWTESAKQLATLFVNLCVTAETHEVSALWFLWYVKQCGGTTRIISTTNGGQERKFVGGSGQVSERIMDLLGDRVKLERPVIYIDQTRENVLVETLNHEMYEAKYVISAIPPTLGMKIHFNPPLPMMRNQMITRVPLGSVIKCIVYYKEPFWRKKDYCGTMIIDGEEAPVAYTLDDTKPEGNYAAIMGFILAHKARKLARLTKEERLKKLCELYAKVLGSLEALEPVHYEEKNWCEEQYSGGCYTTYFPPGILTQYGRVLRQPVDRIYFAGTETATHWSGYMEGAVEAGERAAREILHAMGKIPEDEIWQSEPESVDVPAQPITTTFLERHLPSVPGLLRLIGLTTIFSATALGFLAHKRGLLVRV
# [3] = species: Homo sapiens; test: Selectivity index, ratio of IC50 for human MAOA to IC50 for human MAOB
# [4] = target: T1, Amine oxidase [flavin-containing] A; test: Inhibition of human MAOA using p-tyramine as substrate at 100 uM after 15 mins by Amplex Red MAO assay; conditions: 0.25 h
# [5] = target: T2, Amine oxidase [flavin-containing] B; test: Competitive inhibition of human MAOB using 50 to 500 uM of p-tyramine as substrate up to 20 nM by Lineweaver-Burk plot analysis
# [6] = test system: SH-SY5Y; test: Neurotoxicity against human SH-SY5Y cells assessed as cell viability at 3 to 50 uM after 48 hrs by MTT assay; type: toxicity, cell-based
# [7] = target: T1, Amine oxidase [flavin-containing] A; test: Inhibition of MAOA (unknown origin)
# [8] = target: T2, Amine oxidase [flavin-containing] B; test: Inhibition of MAOB (unknown origin)
# [9] = target: T2, Amine oxidase [flavin-containing] B; test: Reversible inhibition of human MAOB using p-tyramine as substrate preincubated for 60 mins
IC50 [2] [nM],Ratio IC50 [3],inhibition at 100 µM [4] [%],SMILES,also measured
183,385,–,CC(=O)c1ccc(OCc2ccccc2C(F)(F)F)cc1,IC50 [1]: 70500 nM
58.2,> 1720,48.9,CC(=O)c1ccc(OCc2cccc(C(F)(F)F)c2)cc1,–
86.3,> 1160,32.3,CC(=O)c1ccc(OCc2cccc(C)c2)cc1,–
140,> 714,23,CC(=O)c1cccc(OCc2ccc(C)cc2)c1,–
1950,> 51.3,31,CC(=O)c1cccc(OCc2ccccc2)c1,–
110,> 909,8.19,CC(=O)c1ccc(OCc2ccccc2)cc1,–
56.9,> 1760,47.1,CC(=O)c1ccc(OCc2ccccc2F)cc1,–
67.9,1150,–,CC(=O)c1ccc(OCc2ccc(F)c(F)c2)cc1,IC50 [1]: 78300 nM
77.1,> 1300,42.9,CC(=O)c1ccc(OCc2ccccc2C)cc1,–
86.4,> 1160,49.6,CC(=O)c1cccc(OCc2ccc(F)cc2)c1,–
85.6,> 1170,23.2,CC(=O)c1ccc(OCc2ccc(Br)cc2)cc1,–
–,–,–,CC(=O)c1ccc(OCc2cccc(Cl)c2)cc1,IC50 [1]: 83300 nM
–,–,43.5,CC(=O)c1ccc(OCc2ccc(F)cc2)cc1,Activity [5]: Active; Activity [6]: Non-toxic
96.5,> 1040,33.8,CC(=O)c1ccc(OCc2ccc([N+](=O)[O-])cc2)cc1,–
102,> 980,5.96,CC(=O)c1ccc(OCc2ccc(C)cc2)cc1,–
311,288,–,CC(=O)c1ccc(OCc2ccccc2Cl)cc1,IC50 [1]: 89600 nM
63.2,1480,–,CC(=O)c1ccc(OCc2ccc(Cl)cc2)cc1,IC50 [1]: 93600 nM
–,–,–,CC(=O)c1cccc(OCc2ccc(Br)cc2)c1,IC50 [1]: 48700 nM
104,493,–,CC(=O)c1ccc(OCc2cccc([N+](=O)[O-])c2)cc1,IC50 [1]: 51300 nM

IC50 [2] [nM],Ratio IC50 [3],inhibition at 100 µM [4] [%],SMILES,also measured
893,> 112,31.1,CC(=O)c1cccc(OCc2cccc(C)c2)c1,–
214,> 467,48.3,CC(=O)c1ccc(OCc2cccc(Br)c2)cc1,–
75.4,1180,–,CC(=O)c1cccc(OCc2ccc([N+](=O)[O-])cc2)c1,IC50 [1]: 88300 nM
83.1,> 1200,48.4,CC(=O)c1ccc(OCc2cccc(F)c2)cc1,–
–,–,–,C#CCNCc1cc2cc(OCc3ccccc3)ccc2[nH]1,IC50 [7]: 790 nM; IC50 [8]: 11 nM
34.2,1370,–,CC(=O)c1cccc(OCc2cccc(Cl)c2)c1,IC50 [1]: 46800 nM
–,–,–,CC(=O)c1cccc(OCc2ccc(Cl)cc2)c1,IC50 [1]: 39700 nM; Activity [5]: Active; Activity [6]: Non-toxic
114,> 877,17.8,CC(=O)c1cccc(OCc2cccc([N+](=O)[O-])c2)c1,–
27.3,> 3660,45.7,CC(=O)c1ccc(OCc2ccc(F)cc2F)cc1,–
–,–,–,O=C1CCc2ccc(OCc3ccc(Br)cc3)cc2N1,IC50 [7]: 7980 nM; IC50 [8]: 2.9 nM
84.1,> 1190,44.3,CC(=O)c1ccc(OCc2cc(F)c(F)c(F)c2)cc1,–
–,–,–,O=C1CCCc2cc(OCc3ccc(I)cc3)ccc21,IC50 [7]: 1290 nM; IC50 [8]: 4.5 nM
96.3,> 1040,49.1,CC(=O)c1cccc(OCc2cccc(Br)c2)c1,–
–,–,–,CC(=O)c1ccc(OCc2ccc(Br)cc2)cc1O,IC50 [7]: 15800 nM; IC50 [8]: 4 nM
284,> 352,34,CC(=O)c1ccc(OCc2ccccc2[N+](=O)[O-])cc1,inhibition (INH) [9]: Active
21.2,> 4720,46.7,CC(=O)c1cccc(OCc2cccc(C(F)(F)F)c2)c1,inhibition (INH) [9]: Active
193,> 518,31,CC(=O)c1cccc(OCc2cccc(F)c2)c1,–
43.2,> 2320,27.2,CC(=O)c1cccc(OCc2ccc(C(F)(F)F)cc2)c1,–
77.8,> 1280,26.4,CC(=O)c1ccc(OCc2ccc(C(F)(F)F)cc2)cc1,–

SMILES,IC50 [2] [nM],Ratio IC50 [3],inhibition at 100 µM [4] [%],also measured
C[C@H](NCc1ccc(OCc2cccc(F)c2)cc1)C(N)=O [SAFINAMIDE],–,–,9.74,–
